Article PMC4479448, “Delivery of Topically Applied Calpain Inhibitory Peptide to the Posterior Segment of the Rat Eye” (PLoS ONE, 2015)
Where a SMILES comes first, the peptide text is derived from it.

Columns and labels:
[1] = Sandwich ELISA quantification of topically instilled peptide in retinal extract; assay type: in vivo, Sprague-Dawley rats; conditions: for roughly equivalent concentration of the peptide in the intracellular space: converted from ELISA value; for concentration of the Tat-μCL in the retina: 1 mM, 20 μl eye drops twice a day for 7 days, whole retina extract, sandwich ELISA, average ± SD, n = 6 eyes (6 rats)
Procedure: (§1) Every effort was taken to minimize suffering. […] Animals were randomly allocated into experimental or control group.
The amount of the peptide delivered to the retina was quantified by sandwich ELISA as per a previously reported method. In this procedure, we first added 50 μl of rabbit polyclonal anti-HIV1 tat antibody (1:2000, ab43014, Abcam) diluted with 0.05 M carbonate-bicarbonate buffer, pH 9.6, to 96-well immunoplates (Nunc, Roskilde, Denmark). After incubating the plates overnight at 4°C, the plates were washed three times with PBS-T, and then incubated with PBS-T containing 10% bovine serum albumin (BSA) at 37°C for 2 h. Subsequently, we then washed the plates with PBS and incubated the plates with 50 μl of retinal extract or standard peptide (100 amol, 1 fmol, 10 fmol, 100 fmol, 1 pmol, 10 pmol, 100 pmol and 1 nmol Tat-μCL) diluted with PBS-T containing 10% BSA at 37°C for 2 h. The retinal extract was obtained by sonication and gradual centrifugations at 600×g for 5 min, 4,500×g for 10 min, and 20,000×g for 20 min. The supernatant of the final centrifugation was used as the retinal extract. The protein concentration was measured by the Bradford’s assay with bovine serum albumin used as the standard. After washing the plate three times with PBS-T, the plates were incubated with 50 μl of mouse monoclonal anti-HIV1 tat antibody (1:1000, ab63957, Abcam) diluted with PBS-T containing 10% BSA at 37°C for 2 h. Subsequently, the plates were then washed three times with PBS-T and incubated with horse radish peroxidase (HRP)-conjugated rabbit anti-mouse IgG (1:1000) diluted with PBS-T containing 10% BSA at 37°C for 2 h. After incubation, the plates were washed three times with PBS-T and then once with distilled water. The reaction was performed by incubating the plates with 50 μl of citrate-phosphate buffer, pH 5.0, containing 0.04% o-phenylenediamine and 0.006% hydrogen peroxide. Color development was inhibited by the addition of 50 μl of 2.4 M sulfuric acid. Absorbance was determined at 492 nm.
All statistical analyses were conducted using the SPSS version 22 software program (IBM, Armonk, NY). A one-way ANOVA was used to statistically compare the results between multiple groups. And then, as a post hoc analysis, a Dunnett T3 test was used to determine significance between the two groups. In the present study, P < 0.05 was considered statistically significant. Experiments were performed in triplicate to confirm the reproducibility.

[2] = Immunohistochemical distribution of topically instilled peptide in and around the eye (anti-HIV1 tat antibody); assay type: in vivo, Sprague-Dawley rats; conditions: for distribution of topically instilled peptide (immunoreactivity): n = 3 eyes (3 rats)
Procedure: as §1
Distribution of the peptide was analyzed by immune-positive reactions observed in and around the rat eyes. Immunohistochemical experiments were performed in line with our previously reported method. Briefly, rats were euthanized after the final eye drop instillation by inhalation of carbon dioxide at 1, 3 and 6 h. Eyes were immediately enucleated after euthanasia. For the immunohistochemistry, eyes were fixed in 4% paraformaldehyde in phosphate-buffered saline (PBS), pH 7.4, for 20 min at room temperature. Eyes were then placed in the fixative overnight at 4°C. Specimens were cryoprotected for 4 h in 10% then 20% sucrose in PBS, and then frozen in OCT compound. […] The sections were rinsed in PBS and blocked with 1% skim milk in PBS containing 0.05% Tween (PBS-T) for 2 h at room temperature. Sections were incubated overnight at 4°C with the mouse monoclonal antibody raised against HIV1 tat (ab63957, 1:200, Abcam, Cambridge, UK) diluted in 1% skim milk in PBS-T as the primary antibody. Sections were then washed with PBS-T and incubated with tetramethylrhodamine isothiocyanate isomer R (TRITC)-conjugated rabbit anti-mouse IgG (R0270, 1:200, Dako, Glostrup, Denmark) overnight at 4°C. Sections were washed with PBS-T and nuclei were counterstained with 4’ 6-diamidino-2-phenylindole (DAPI). Immunofluorescent images were obtained by laser confocal microscopy (FV1000-D; Olympus, Tokyo, Japan).

[3] = 1 mM eye drops twice a day for 7 days, adult female SD rats
Procedure: We performed topical instillation (20 μl) of 1 mM Tat-μCL dissolved in a sterile saline solution (pH 7.4) twice a day (9 a.m. and 5 p.m.) for 7 days in both eyes of adult female SD rats (3-month-old, weighing 350–400g) without anesthesia. […] Topical application was performed in home cages using a micropipette tip with residual liquid around the eyelids wiped off by a cotton swab. Every effort was taken to minimize suffering. Before the rat eyes were enucleated, rats were euthanized with inhalation of carbon dioxide. […] At each time point, 6 rats were examined, with 3 out of the 6 right eyes used for the immunohistochemistry and all of the left eyes used for the biochemical analyses. As a control, 3 rats were topically administered sterile saline for bilaterally using the same methods described above. Animals were randomly allocated into experimental or control group. Every effort was taken to reduce the number of animal used.

[4] = test system: photoreceptors; conditions: topical instillation of 1 mM eye drops, rhodopsin P23H transgenic rats; cited from earlier work
Description: Every effort was taken to minimize suffering. Before the rat eyes ... || Calpains are members of the Ca^2+-activated cysteine proteinases and play important roles in various physiological and pathological pathways, such as regulating signal transductions, the cell cycle, cell adhesion, gene expression, and cell death.

[5] = rat, in vivo; cited from earlier work

Molecule	roughly equivalent concentration of the peptide in the intracellular space ([1]; 1 h after final eye drops) [µM]	concentration of the Tat-μCL in the retina ([1]; 1 h after final instillation) [pg/μg protein]	roughly equivalent concentration of the peptide in the intracellular space ([1]; 3 h after final eye drops) [µM]	concentration of the Tat-μCL in the retina ([1]; 3 h after final instillation) [pg/μg protein]	roughly equivalent concentration of the peptide in the intracellular space ([1]; 6 h after final eye drops) [µM]	concentration of the Tat-μCL in the retina ([1]; 6 h after final instillation) [pg/μg protein]	time for which sufficient concentration (> IC50) is maintained in the rat retina ([1]; after final application of 1 mM eye drops)	half-life of Tat-μCL in the rat retina ([1]; estimated from ELISA results (Fig 4), topical 1 mM eye drops)	time after final application of most prominent immunoreactivity ([2]; anterior segment tissues, examined at 1 and 3 h) [h]	distribution of topically instilled peptide (immunoreactivity) ([2]; anterior segment)	time after final instillation of most prevalent immunoreactivity ([2]; optic disc area, examined at 1, 3 and 6 h) [h]	distribution of topically instilled peptide (immunoreactivity) ([2]; optic disc area)	time after final application of most abundant immunoreactivity ([2]; posterior segment, examined at 1, 3 and 6 h) [h]	distribution of topically instilled peptide (immunoreactivity) ([2]; posterior segment)	adverse effects [3]	adverse effects [4]	time of peak in the retina after eye drop application [5] [h]
CC(C)C[C@H](NC(=O)[C@H](C)NC(=O)[C@H](CC(=O)O)NC(=O)[C@@H]1CCCN1C(=O)[C@H](CCC(N)=O)NC(=O)[C@@H]1CCCN1C(=O)[C@@H]1CCCN1C(=O)[C@H](CCCNC(=N)N)NC(=O)[C@H](CCCNC(=N)N)NC(=O)[C@H](CCCNC(=N)N)NC(=O)[C@H](CCC(N)=O)NC(=O)[C@H](CCCNC(=N)N)NC(=O)[C@H](CCCNC(=N)N)NC(=O)[C@H](CCCCN)NC(=O)[C@H](CCCCN)NC(=O)[C@H](CCCNC(=N)N)NC(=O)CN)C(=O)N[C@@H](CCCCN)C(=O)N[C@@H](CO)C(=O)N[C@@H](CCCNC(=N)N)C(=O)N[C@H](C(=O)N[C@@H](CC(C)C)C(=O)N[C@@H](CCCNC(=N)N)C(=O)O)[C@@H](C)O [Tat-μCL] (H-GRKKRRQRRRPPQPDALKSRTLR-OH)	~4.48	15.3	~1.70	5.8	~0.29	1.0	at least 6 h	approximately 2.6 h	1	diffusely distributed in the various tissues including the cornea, sclera, iris, ciliary body, choroid and retinal pigment epithelium (RPE)	1	detected in the optic nerve, optic nerve sheath, optic disc, all layers of the retina, and the retrobulbar connective tissues	1	diffusely distributed throughout the retina, including the photoreceptor outer segments, outer nuclear layer, inner nuclear layer, and ganglion cell layer	without any adverse effects	without causing any adverse effects	–
nerve growth factor	–	–	–	–	–	–	–	–	–	–	–	–	–	–	–	–	6
